Experimental data from patent US10918746B2, “Radioactive compositions and methods for their therapeutic use” (IsoTherapeutics Group LLC, priority 2011, dated 2021).

Columns and labels:
[1] = Biolocalization after injection into synovial cavity of right hind knee; assay type: in vivo, Sprague Dawley rats; conditions: Rats
Excerpt: One method of this invention uses a therapeutically-effective quantity of the compositions of Formula (II) and Formula (III), administered in one or more locations into or near a Non-intracavitary, undesirable tissue mass (e.g. cancer) in an animal or human in need of such treatment. Another method of this invention uses a therapeutically-effective quantity of these hydroxy carbonates, administered in one or more locations into or near the synovial cavity to treat arthritis. In either method the treatment is such that a major portion of the dose remains at the site of injection (defined as greater than about 90% of the dose remaining at the site after two half-lives of the radioisotopes; more preferably greater than about 95% of the dose remaining at the site after 2 half-lives of the radioactive isotopes; and most preferably greater than about 98% of the dose remaining at the site after 2 half-lives of the radioisotopes) as determined by biolocalization data obtained by dissection of an animal (e.g. BALB/c mice or Sprague Dawley rats); wherein the values are corrected for radioactive decay. It is also important to recognize that deposition of radioactivity in non-target organs and tissues can impact the safety and efficacy of the treatment. Ideally, in mice, less than about 1% remaining in the carcass (including the contralateral femur) and less than about 0.2% in the liver plus the kidneys and, in rats, less than about 1% in the skeletal structure and less than about 0.2% in the liver plus the kidneys. In the case of mice (injection into the gastrocnemius muscle of the right hind leg is used as a model for Non-Intracavitary tumors), all tissues, including the whole carcass, and bedding were collected such that 100% of the radioactivity was accounted for. In the case of rats (injections were directly into the synovial cavity), the size of the animal precluded counting the entire carcass. Therefore samples of blood, muscle, and bone (contralateral femur) were collected and the total masses of those tissues were calculated. The tissue masses were calculated based on rat body weight using equations fitted to data in the literature [Henry H. Donaldson, The Rat: Reference Tables and Data for the Albino Rat and the Norway Rat, (1915)].
Six male Sprague Dawley rats, under Isoflurane anesthesia, were each injected with 20 μL of the Composition prepared according to the procedure of Example 1 into the synovial cavity of the right hind knee using a ⅓ cc insulin syringe. The dose was deposited into the cavity via needle insertion through the skin. The rats were individually housed in cages with absorbent paper under a wire mesh bottom. […]
Due to the size of the animals, the carcass was not collected and measured as was done for the mice. The % ID in the skeletal structure, muscular structure and blood in the body were calculated from the activity in samples of those tissues (left femur, left thigh, blood) and rat body weight using equations fitted to data in the literature as was described earlier.
Samples were counted for radioactivity on a PerkinElmer Wizard automated NaI well detector. The data, shown below in Table 1, indicate the average percent injected dose in each tissue/sample.

[2] = Biolocalization two hours after delivery into a drilled hole in the femur; assay type: in vivo, Sprague Dawley rat; conditions: rat femur
Method: Ho-166 in 0.1M HCl was obtained from MURR. The pH was measured with pH paper showing a pH of about 1. A miniature drill was used to create a hole in the femur of an anesthetized Sprague Dawley rat. A miniature pump was used to deliver 3 μL of Ho-166 solution into the hole created by the drill. Two hours after the injection of the dose the rat was sacrificed and dissected. The amount of activity found in the site of injection was 5% of the injected dose. 52% of the dose was found in the liver and 23% of the dose was found in the rest of the bone.
A miniature drill was used to create a hole in the femur of an anesthetized Sprague Dawley rat. A miniature pump was used to deliver 2 μL of Sm-153-DOTMP solution into the hole created by the drill. Two hours after the injection of the dose the rat was sacrificed and dissected. The amount of activity found in the site of injection was 9% of the injected dose and about 20% was found in the rest of the bone. An average of 65% of the injected dose was found in the urine.

O=C([O-])CN(CCN(CC(=O)[O-])CC(=O)[O-])CCN(CC(=O)[O-])CC(=O)[O-].[117Sn+4].[H+] [Example K]
Average % ID, Calculated Blood ([1]; 14 days): 0.0 % ID
Average % ID, Calculated Muscle ([1]; 14 days): 0.3 % ID
Average % ID, Calculated Skeleton ([1]; 14 days): 28.0 % ID
Average % ID, Heart ([1]; 14 days): 0.0 % ID
Average % ID, Kidney ([1]; 14 days): 0.4 % ID
Average % ID, Leg (injection site) ([1]; 14 days): 31.2 % ID
Average % ID, Lg. Intestine ([1]; 14 days): 0.0 % ID
Average % ID, Liver ([1]; 14 days): 0.4 % ID
Average % ID, Lung ([1]; 14 days): 0.0 % ID
Average % ID, Sm. Intestine ([1]; 14 days): 0.0 % ID
Average % ID, Spleen ([1]; 14 days): 0.0 % ID
Average % ID, Stomach ([1]; 14 days): 0.0 % ID
Average % ID, Urine/Feces ([1]; 14 days): 39.5 % ID
Average % ID, Calculated Blood ([1]; 28 days): 0.0 % ID
Average % ID, Calculated Muscle ([1]; 28 days): 0.1 % ID
Average % ID, Calculated Skeleton ([1]; 28 days): 30.0 % ID
Average % ID, Heart ([1]; 28 days): 0.0 % ID
Average % ID, Kidney ([1]; 28 days): 0.3 % ID
Average % ID, Leg (injection site) ([1]; 28 days): 22.6 % ID
Average % ID, Lg. Intestine ([1]; 28 days): 0.0 % ID
Average % ID, Liver ([1]; 28 days): 0.4 % ID
Average % ID, Lung ([1]; 28 days): 0.0 % ID
Average % ID, Sm. Intestine ([1]; 28 days): 0.0 % ID
Average % ID, Spleen ([1]; 28 days): 0.0 % ID
Average % ID, Stomach ([1]; 28 days): 0.0 % ID
Average % ID, Urine/Feces ([1]; 28 days): 46.6 % ID

[166Ho+3].[Cl-].[Cl-].[Cl-] [Example G, Ho-166 Chloride]
amount of activity found in the site of injection [2]: 5 % of the injected dose
dose found in the liver ([2]; two hours after injection): 52 % of the dose
dose found in the rest of the bone ([2]; two hours after injection): 23%

O=P([O-])(O)CN1CCN(CP(=O)([O-])O)CCN(CP(=O)(O)O)CCN(CP(=O)([O-])O)CC1.[153Sm+3] [Sm-153-DOTMP]
amount of activity found in the site of injection [2]: 9 % of the injected dose
dose found in the rest of the bone ([2]; two hours after injection): about 20%
injected dose found in the urine ([2]; two hours after injection, average): 65 % of the injected dose
